Laboratory results from US4968690A (priority 1989, dated 1990).
Where two headings read alike, the source gives them in different places.

What was measured:
[1] = tested on: enzyme which hydrolyzes S-adenosyl-L-homocysteine (AdoHcy); settings: background; cited from earlier work
[2] = background; cited from earlier work
[3] = background; cited from earlier work; remark: listed apart in the source
[4] = tested on: Polio Type III virus (Sabin oral vaccine strain); assay: microbe, parasite or virus in culture; assay type: cell-based
HL-60 cells [5] = assay: Cell viability / acute cytotoxicity in HL-60 cells; assay type: cell-based, human
Description: This reduced toxicity provides excellent selectivity and potency as an antiviral agent.

[6] = biological target: hamster liver adenosine-homocystine (AdoHyc) hydrolase (Mesocricetus auratus, UniProt A0A1U7RAJ1); assay: Inhibition of hamster liver AdoHcy hydrolase
[7] = tested on: cells used to support virus growth; assay: Toxicity to cells used to support virus growth; assay type: cell-based; settings: listed concentrations 50, 25, 5 μg/ml
Description: ^(a) Concentrations listed were nontoxic to cells used to support
^(a) Concentrations listed were noncytotoxic to cells used to support

[8] = tested on: Coxsackie A9 virus, strain 1861; assay: Antiviral effect, Coxsackie A9 in Viro E6 cells (plaque reduction); assay type: cell-based; settings: read-out: % PFU Reduction, Coxsackie 9A
[9] = tested on: Dengue virus Type II, strain 16681; assay: Antiviral effect, Dengue II in Vero E6 cells (plaque reduction); assay type: cell-based; settings: Vero C1008, read-out: % PFU Reduction, Dengue II
quiescent normal cells = settings: subtoxic concentrations; cited from earlier work
L1210 leukemia = settings: background; cited from earlier work
H.Ep.-2 cells = settings: background; cited from earlier work
L1210 cells = settings: background; cited from earlier work
adenosine deaminase = settings: background; cited from earlier work
malignant cell lines = settings: subtoxic concentrations; cited from earlier work
[10] = tested on: Herpes Simplex Type II virus, strain 28382; assay: Antiviral effect, Herpes Simplex II in mink lung cells (plaque reduction); assay type: cell-based; settings: for inhibition at 5 µg/mL: 5 μg/ml; for inhibition at 25 µg/mL: 25 μg/ml
Description: ^(b) Herpes Simplex Type II virus, strain 28382 in mink lung cells.
^(d) Plaque forming units (PFU) is a measure of the infectivity of th
^(e) Multiplicity of infection (MOI) 2.0 PFU/ml.

[11] = tested on: CTP, UTP, ATP, GTP levels in HL-60 cells; assay: Nucleotide (CTP, UTP, ATP, GTP) levels in HL-60 cells; assay type: cell-based, human
Description: (§1) The effect of this compound on differentiation, and nucleic acid and nucleotide biosynthesis were examined in the malignant human promyelocytic leukemia cell line, HL-60. […] During this exposure interval, pronounced differentiation to mature myeloid cells occurred wherein 95% of the cell population reduced nitroblue tetrazolium four days after exposure to 10^-7 M CPE-C.

c-myc mRNA = c-myc mRNA levels in HL-60 cells; assay type: cell-based, human; settings: preceding induction of mature myeloid cells
Description: as §1

[12] = tested on: Adenovirus Type 7, strain V1012; assay: Antiviral effect, Adenovirus 7 in Hep2 cells (plaque reduction); assay type: cell-based
Description: ^(c) Adenovirus Type 7, strain V1012 in Hep2 cells.

HL-60 cells [13] = assay: Growth inhibition and differentiation of HL-60 cells (nitroblue tetrazolium reduction); assay type: cell-based, human
Description: as §1

[14] = tested on: Dengue virus Type II, strain 16681; assay: Antiviral effect, Dengue Type II in BHK21 cells (plaque reduction); assay type: cell-based; settings: for inhibition at 5 µg/mL / inhibition at 25 µg/mL / inhibition at 50 µg/mL: Dengue virus, BHK-21, BHK21 cells, read-out: % PFU Reduction, Dengue Type II; for inhibition at 5 µg/mL: 5 μg/ml; for inhibition at 25 µg/mL: 25 μg/ml; for inhibition at 50 µg/mL: 50 μg/ml
[15] = tested on: DNA synthesis / RNA synthesis in HL-60 cells; assay: DNA and RNA synthesis in HL-60 cells; assay type: cell-based, human
Description: as §1

viruses = assay: General antiviral evaluation; assay type: cell-based; settings: compared with CPE-C
L1210 tumor cells = assay: Cytotoxicity against L1210 tumor cells in culture; assay type: cell-based; settings: Mus musculus, 48 hour exposure
[16] = read-out: % PFU Reduction, Polio III
[17] = read-out: % PFU Reduction, Polio Type III
[18] = mink lung cells, first value of cell, presumably MOI 2.0 PFU/ml, read-out: % PFU Reduction, Herpes Simplex II (first value)
[19] = mink lung cells, second value of cell, read-out: % PFU Reduction, Herpes Simplex II (second value)

Compound: 3-deazaaristeromycin
- inhibition of AdoHcy-hydrolyzing enzyme (in words) [1]: very potent and specific inhibitor
- side effects [2]: devoid of some of the undesirable side effects
- phosphorylation and deamination [3]: resistance towards phosphorylation and deamination

Compound: Nc1nccc2c1ncn2[C@@H]1C=C(CO)[C@@H](O)[C@H]1O [3-Deazaneplanocin A, 4-Amino-1-[(1'R,2'S,3'R)-4'-hydroxymethyl-2',3'-dihydroxy-4'-cyclopenten-1'-yl]imidazo[4,5-c]pyridine]
- inhibition at 5 µg/mL [4, 16]: 44.4%
- inhibition at 25 µg/mL [4, 16]: 77.7%
- inhibition at 50 µg/mL [4, 16]: 83.3%
- toxicity (in words) (HL-60 cells [5]; summary statement, compared with neplanocin A): without the toxicity of neplanocin A
- change in cell viability (HL-60 cells [5]; two days of continuous exposure): Little or no change in cell viability
- Ki [6]: 0.05 nM
- inhibition of AdoHyc hydrolase (in words) ([6]; summary statement): particularly potent inhibitor
- mode of inhibition ([6]; with adenosine): competitive inhibitor
- toxicity to cells used to support virus growth [7]: nontoxic
- inhibition at 5 µg/mL [8]: 69.4%
- inhibition at 25 µg/mL [8]: 77.2%
- inhibition at 50 µg/mL [8]: 89.4%
- inhibition at 5 µg/mL [9]: 14.2%
- inhibition at 25 µg/mL [9]: 95%
- inhibition at 50 µg/mL [9]: 98.9%

Compound: Nc1nccc2c1ncn2[C@@H]1O[C@H](CO)[C@@H](O)[C@H]1O [3-deazaadenosine]
- phosphorylation and deamination [3]: resistance towards phosphorylation and deamination

Compound: Nc1ncnc2c1ncn2[C@@H]1C[C@H](CO)[C@@H](O)[C@H]1O [C-Ado]
- cell proliferation of quiescent normal cells (quiescent normal cells): induced cell proliferation
- activity in in vivo mouse L1210 model (L1210 leukemia): inactivity
- cytotoxicity to H.Ep.-2 cells in culture (H.Ep.-2 cells): highly cytotoxic
- cytotoxicity to L1210 cells in culture (L1210 cells): highly cytotoxic
- affinity for adenosine deaminase relative to adenosine (adenosine deaminase): hundredfold lower
- deamination by adenosine deaminase (adenosine deaminase): also deaminated by adenosine deaminase
- growth in malignant cell lines (malignant cell lines): inhibited growth

Compound: Nc1ccn([C@@H]2C=C(CO)[C@@H](O)[C@H]2O)c(=O)n1 [CPE-C, 4-amino-1-[(1'R,2'S,3'R)-4'-hydroxymethyl-4'-cyclopenten-1'-yl]-2(1H)pyrimidinone]
- inhibition at 5 µg/mL [4, 17]: 73.2%
- inhibition at 25 µg/mL [4, 17]: 82.1%
- inhibition at 50 µg/mL [4, 17]: 94.6%
- inhibition at 5 µg/mL [10, 18]: 98.7%
- inhibition at 5 µg/mL [10, 19]: 98.6%
- inhibition at 25 µg/mL [10, 18]: 95.7%
- inhibition at 25 µg/mL [10, 19]: 99.5%
- inhibition at 50 µg/mL ([10]; 50 μg/ml, mink lung cells, second value of cell, read-out: % PFU Reduction, Herpes Simplex II (second value)): 100%
- antiviral activity (in words), Herpes Simplex Type II ([10]; non-cytotoxic concentrations): excellent activity
- inhibition at 50 µg/mL ([10]; read-out: % PFU Reduction, Herpes Simplex II (first value)): 97.4%
- level of CTP (in words) ([11]; during CPE-C treatment): rapid and pronounced inhibition
- level of UTP, ATP or GTP ([11]; during CPE-C treatment): not of UTP, ATP or GTP
- CTP levels following drug removal ([11]; following drug removal): sustained reduction in CTP levels
- c-myc mRNA levels (c-myc mRNA): inhibition of c-myc mRNA levels which was more pronounced than the reduction in total cellular RNA synthesis
- inhibition at 5 µg/mL ([12]; Human mastadenovirus B, HEp-2, 5 μg/ml, Hep2 cells, read-out: % PFU Reduction, Adenovirus 7): 70%
- inhibition at 25 µg/mL ([12]; Human mastadenovirus B, HEp-2, 25 μg/ml, Hep2 cells, read-out: % PFU Reduction, Adenovirus 7): 80%
- inhibition at 50 µg/mL ([12]; Human mastadenovirus B, HEp-2, 50 μg/ml, Hep2 cells, read-out: % PFU Reduction, Adenovirus 7): 94%
- antiviral activity (in words), Adenovirus Type 7 ([12]; non-cytotoxic concentrations): excellent activity
- inhibition of cell growth (HL-60 cells [13]; continuous exposure for 5 days, 10^-8 to 10^-6 M): progressive inhibition of cell growth
- differentiation to a non-malignant phenotype (HL-60 cells [13]; continuous exposure for 5 days, 10^-8 to 10^-6 M, nitroblue tetrazolium reduction): differentiation to a non-malignant phenotype
- cell population that reduced nitroblue tetrazolium (HL-60 cells [13]; four days after exposure to 10^-7 M): 95 % of the cell population
- activity as cancer cell differentiating agent (in words) (HL-60 cells [13]; summary statement): potent cancer cell differentiating agent
- toxicity to cells used to support virus growth [7]: noncytotoxic
- inhibition at 5 µg/mL [14]: 0%
- inhibition at 25 µg/mL [14]: 2.5%
- inhibition at 50 µg/mL [14]: 95%
- RNA synthesis ([15]; 10^-7 M, relative to DNA synthesis): inhibited to a lesser extent
- activity at 0.1 µM ([15]; Homo sapiens, HL-60, 24 hrs. after exposure to 10^-7 M): 10%

Compound: O=c1ccn([C@@H]2C=C(CO)[C@@H](O)[C@H]2O)c(=O)[nH]1 [CPE-U]
- toxicity to cells used to support virus growth [7]: noncytotoxic
- general antiviral activity (in words) (viruses): less effective as a general antiviral agent
- antiviral activity (in words), Dengue Type II [14]: good activity
- inhibition at 5 µg/mL [14]: 2%
- inhibition at 25 µg/mL [14]: 91%
- inhibition at 50 µg/mL [14]: 93%

Compound: Nc1ncnc2c1nnn2[C@@H]1C=C(CO)[C@@H](O)[C@H]1O [Formula 8-Aza-CPE-A, 7-Amino-3-[(1'R,2'S,3'R)-4'-hydroxymethyl-2',3'-dihydroxy-4'-cyclopenten-1'-yl]-3H-1,2,3-triazolo[4,5-d]pyrimidine]
- IC50 (L1210 tumor cells): 3000 nM

Compound: Nc1ncnc2c1ncn2[C@@H]1C=C(CO)[C@@H](O)[C@H]1O [Neplanocin A, 9-[(1'R,2'S,3'R)-4-Hydroxymethyl-2',3'-dihydroxy-4-cyclopenten-1'-yl]adenine]
- toxicity to HL-60 cells (HL-60 cells [5]; 24 hrs. exposure, equimolar concentration, vs 3-deazaneplanocin): more toxic
- inhibition of AdoHcy-hydrolyzing enzyme (in words) [1]: potent inhibitor
- side effects [2]: multiplicity of side effects including cytotoxicity
- phosphorylation [3]: readily phosphorylated
